Test results taken from US20080171773A1, “FACTOR Xa INHIBITOR” (Pfizer Inc, priority 2006, published 2008).

Target: T1, human factor Xa (Homo sapiens, UniProt P00742)
T1 construct: factor Xa, a serine protease that occupies a pivotal position in the coagulation cascade
Assay: Factor Xa inhibitory activity: inhibition of human factor Xa cleavage of substrate S-2765
Assay type: biochemical
Conditions: 30 pM human factor Xa, substrate S-2765 at its Km, pH 7.4, 37° C.; mean of replicates (SD, SEM and n in separate columns)
Experimental: The ability of compounds to act as inhibitors of human factor Xa catalytic activity can be assessed by determination of the concentration of test substance that inhibits by 50% (IC50) the ability of human factor Xa to cleave the chromogenic substrate S2765 (N-CBz-D-Arg-L-Gly-L-Arg-p-nitroanilide. 2HCl).
The assay was performed in triplicate using a final concentration of 30 pM of human factor Xa (diluted in buffer containing 10 mM HEPES, 150 mM NaCl, 0.1% bovine serum albumin (BSA), pH 7.4). The substrate, S-2765 (N-CBz-D-Arg-L-Gly-L-Arg-p-nitroanilide, 2HCl), was run at a final concentration equal to its Km value. The (R) enantiomer was serially diluted in 100% DMSO (final assay concentration=2% DMSO) to final concentrations of 1.0 μM to […]. Dilutions were transferred to a black polystyrene 96-plate microtiter assay plate at a volume of 2.5 μL/well. […] The reactions were initiated by the addition of 50 μL of pre-warmed substrate and immediately placed in the microplate reader pre-warmed at 37° C.
A fluorometric plate reader was used to continuously monitor the rate of change in relative fluorescence units (RFUS) per unit time. The assay plate was mixed once before reading. The fluorogenic emission was read every 44 seconds for 30 minutes (excitation/emission of λex=390 nm and λex=460 nm; automatic cutoff=455 nm) at 37° C.

T1 sequence (P00742 235-488 limits assumed): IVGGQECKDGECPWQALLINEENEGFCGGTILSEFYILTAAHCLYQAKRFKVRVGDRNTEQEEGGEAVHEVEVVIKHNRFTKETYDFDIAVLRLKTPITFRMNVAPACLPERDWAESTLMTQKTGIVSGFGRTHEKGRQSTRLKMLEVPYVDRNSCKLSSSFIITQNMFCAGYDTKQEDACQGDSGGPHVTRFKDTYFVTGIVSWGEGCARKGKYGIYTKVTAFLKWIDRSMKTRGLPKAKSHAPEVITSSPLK
T1 sequence (P00742 41-179 partner limits assumed): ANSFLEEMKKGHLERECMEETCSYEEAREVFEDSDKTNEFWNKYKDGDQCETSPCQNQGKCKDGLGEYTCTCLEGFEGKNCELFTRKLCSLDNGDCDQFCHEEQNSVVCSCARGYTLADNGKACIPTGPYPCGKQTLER

IC50 [nM] | SMILES
0.982 | C[C@]1(C(=O)Nc2ccc(-n3ccccc3=O)cc2F)CC=NN1C(=O)Nc1ccc(Cl)cc1 [(R) enantiomer, (R)-5-Methyl-4,5-dihydro-pyrazole-1,5-dicarboxylic acid 1-[(4-chloro-phenyl)-amide] 5-{[2-fluoro-4-(2-oxo-2H-pyridin-1-yl)-phenyl]-amide}]
141 | C[C@@]1(C(=O)Nc2ccc(-n3ccccc3=O)cc2F)CC=NN1C(=O)Nc1ccc(Cl)cc1 [(S) enantiomer, (S)-5-Methyl-4,5-dihydro-pyrazole-1,5-dicarboxylic acid 1-[(4-chloro-phenyl)-amide] 5-{[2-fluoro-4-(2-oxo-2H-pyridin-1-yl)-phenyl]-amide}]
